What all share (assay): biochemical
Common to all, as to design: Eurofins KinaseProfiler full panel at Km ATP, residual kinase activity (%) relative to DMSO

The target of assay [1] is T1, MST1(h) (Homo sapiens, UniProt Q13043).
T1 construct: gene STK4
T1 sequence (Q13043 1-487): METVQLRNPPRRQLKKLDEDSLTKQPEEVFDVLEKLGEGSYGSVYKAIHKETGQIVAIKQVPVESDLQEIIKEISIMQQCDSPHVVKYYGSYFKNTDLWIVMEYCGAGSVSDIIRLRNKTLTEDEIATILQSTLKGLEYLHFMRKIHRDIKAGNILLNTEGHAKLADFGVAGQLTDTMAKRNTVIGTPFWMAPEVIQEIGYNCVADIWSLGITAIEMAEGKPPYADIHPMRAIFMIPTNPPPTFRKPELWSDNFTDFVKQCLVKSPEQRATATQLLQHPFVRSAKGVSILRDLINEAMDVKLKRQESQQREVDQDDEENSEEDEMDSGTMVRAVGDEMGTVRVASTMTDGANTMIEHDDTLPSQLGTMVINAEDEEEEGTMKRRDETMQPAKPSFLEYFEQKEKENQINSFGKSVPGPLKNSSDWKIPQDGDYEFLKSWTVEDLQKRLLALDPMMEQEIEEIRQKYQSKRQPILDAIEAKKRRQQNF
In outline:
(§1)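 Radiometric kinase activity assays were run with ATP at Km and compounds at 10 µM, and remaining activity (%) was reported. A separate competitive binding screen measured DNA-tagged kinase displaced from immobilized active-site ligands by qPCR, giving percent kinase still bound at 10 µM compound in DMSO.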

Assay [2] concerns the target T2, PEK(h) (Homo sapiens, UniProt Q9NZJ5).
T2 construct: gene EIF2AK3
T2 sequence (Q9NZJ5 1-1116): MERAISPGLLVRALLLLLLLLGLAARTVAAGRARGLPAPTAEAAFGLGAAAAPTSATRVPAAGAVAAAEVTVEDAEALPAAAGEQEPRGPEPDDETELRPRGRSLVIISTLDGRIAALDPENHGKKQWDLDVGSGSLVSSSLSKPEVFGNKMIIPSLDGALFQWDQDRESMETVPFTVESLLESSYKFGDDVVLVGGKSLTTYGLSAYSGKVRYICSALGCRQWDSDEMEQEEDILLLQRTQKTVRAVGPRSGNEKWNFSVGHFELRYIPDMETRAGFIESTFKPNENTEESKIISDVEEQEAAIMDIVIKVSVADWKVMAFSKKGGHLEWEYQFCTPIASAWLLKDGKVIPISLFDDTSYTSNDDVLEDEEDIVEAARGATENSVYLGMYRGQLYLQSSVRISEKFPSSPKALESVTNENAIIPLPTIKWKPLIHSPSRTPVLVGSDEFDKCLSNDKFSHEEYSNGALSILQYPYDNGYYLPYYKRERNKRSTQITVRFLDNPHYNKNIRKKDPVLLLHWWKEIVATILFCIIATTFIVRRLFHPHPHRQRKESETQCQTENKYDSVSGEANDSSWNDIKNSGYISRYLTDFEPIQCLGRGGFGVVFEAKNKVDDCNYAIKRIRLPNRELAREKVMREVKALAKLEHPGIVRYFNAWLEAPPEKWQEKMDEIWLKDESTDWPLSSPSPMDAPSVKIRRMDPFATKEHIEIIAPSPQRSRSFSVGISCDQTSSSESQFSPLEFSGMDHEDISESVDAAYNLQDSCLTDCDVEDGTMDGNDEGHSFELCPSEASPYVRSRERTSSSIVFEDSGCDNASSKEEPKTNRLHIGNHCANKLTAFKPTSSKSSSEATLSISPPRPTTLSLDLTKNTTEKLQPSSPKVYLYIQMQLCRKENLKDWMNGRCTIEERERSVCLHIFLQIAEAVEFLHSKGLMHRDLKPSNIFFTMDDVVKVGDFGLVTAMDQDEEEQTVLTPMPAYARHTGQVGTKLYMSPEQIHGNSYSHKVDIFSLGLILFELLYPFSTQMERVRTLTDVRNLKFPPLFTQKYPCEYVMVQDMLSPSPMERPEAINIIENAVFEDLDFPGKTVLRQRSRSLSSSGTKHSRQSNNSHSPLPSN
In outline:
as §1

In assay [3] the target is CDK1/cyclinB(h) (Homo sapiens, UniProt P06493). A digest of the protocol:
as §1

Assay [4] deals with T3, c-RAF(h) (Homo sapiens, UniProt P04049).
T3 construct: gene RAF1
T3 sequence (P04049 whole entry): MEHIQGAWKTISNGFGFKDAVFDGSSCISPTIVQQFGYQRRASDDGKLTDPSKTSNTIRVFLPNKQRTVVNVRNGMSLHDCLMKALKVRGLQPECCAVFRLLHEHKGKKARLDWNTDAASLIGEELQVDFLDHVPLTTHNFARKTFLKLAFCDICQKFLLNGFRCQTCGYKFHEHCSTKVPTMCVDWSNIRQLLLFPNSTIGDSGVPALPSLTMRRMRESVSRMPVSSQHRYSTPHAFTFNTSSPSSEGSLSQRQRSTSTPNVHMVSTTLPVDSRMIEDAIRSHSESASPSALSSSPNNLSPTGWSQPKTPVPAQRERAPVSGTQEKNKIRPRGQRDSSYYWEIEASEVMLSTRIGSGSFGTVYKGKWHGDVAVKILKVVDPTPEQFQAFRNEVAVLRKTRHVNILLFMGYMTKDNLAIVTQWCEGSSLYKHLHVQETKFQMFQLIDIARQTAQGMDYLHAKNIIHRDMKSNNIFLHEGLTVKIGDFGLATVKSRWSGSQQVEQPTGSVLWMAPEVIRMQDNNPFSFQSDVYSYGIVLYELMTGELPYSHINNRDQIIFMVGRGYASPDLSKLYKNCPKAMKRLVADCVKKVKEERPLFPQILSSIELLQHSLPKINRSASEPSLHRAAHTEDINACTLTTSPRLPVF
A digest of the protocol: as §1

The target of assay [5] is T4, DYRK2(h) (Homo sapiens, UniProt Q92630).
T4 sequence (Q92630 1-601): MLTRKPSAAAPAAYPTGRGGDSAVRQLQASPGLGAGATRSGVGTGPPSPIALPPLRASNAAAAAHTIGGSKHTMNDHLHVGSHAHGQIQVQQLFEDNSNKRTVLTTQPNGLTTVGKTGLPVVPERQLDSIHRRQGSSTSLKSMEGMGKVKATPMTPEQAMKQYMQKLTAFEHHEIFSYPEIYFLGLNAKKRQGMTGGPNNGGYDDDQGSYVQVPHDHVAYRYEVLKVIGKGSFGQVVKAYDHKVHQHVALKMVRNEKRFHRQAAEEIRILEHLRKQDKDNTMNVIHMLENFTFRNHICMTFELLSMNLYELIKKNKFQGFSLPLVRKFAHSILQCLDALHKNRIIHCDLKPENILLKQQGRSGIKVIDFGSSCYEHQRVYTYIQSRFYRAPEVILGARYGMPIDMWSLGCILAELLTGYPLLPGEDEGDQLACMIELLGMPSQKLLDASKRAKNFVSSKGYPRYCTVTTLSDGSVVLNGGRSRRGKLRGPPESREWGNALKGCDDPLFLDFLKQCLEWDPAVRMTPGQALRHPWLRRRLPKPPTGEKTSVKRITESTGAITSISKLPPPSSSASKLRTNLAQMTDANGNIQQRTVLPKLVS
A digest of the protocol: as §1

Where [6] appears, read: read-out: Residual activity (%) 5at.
The mark [7] stands for this setting: read-out: Residual activity (%) 5ay.
The mark [8] stands for this setting: read-out: Residual activity (%) 5as.
Setting [9] is: read-out: Residual activity (%) Spautin-1 5aa.

Like-named read-outs stand apart in the source and are kept apart here.

Chain of CDK1/cyclinB(h) (P06493 whole entry): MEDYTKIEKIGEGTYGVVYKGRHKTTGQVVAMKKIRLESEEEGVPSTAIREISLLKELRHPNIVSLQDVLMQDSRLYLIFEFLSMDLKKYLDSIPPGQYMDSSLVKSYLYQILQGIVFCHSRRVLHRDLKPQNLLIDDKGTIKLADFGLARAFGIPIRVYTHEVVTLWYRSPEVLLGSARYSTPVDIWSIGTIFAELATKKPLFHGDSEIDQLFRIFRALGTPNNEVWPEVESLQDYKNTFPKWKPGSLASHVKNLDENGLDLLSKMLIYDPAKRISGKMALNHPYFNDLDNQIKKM
Chain of CDK1/cyclinB(h) (P14635 whole entry partner): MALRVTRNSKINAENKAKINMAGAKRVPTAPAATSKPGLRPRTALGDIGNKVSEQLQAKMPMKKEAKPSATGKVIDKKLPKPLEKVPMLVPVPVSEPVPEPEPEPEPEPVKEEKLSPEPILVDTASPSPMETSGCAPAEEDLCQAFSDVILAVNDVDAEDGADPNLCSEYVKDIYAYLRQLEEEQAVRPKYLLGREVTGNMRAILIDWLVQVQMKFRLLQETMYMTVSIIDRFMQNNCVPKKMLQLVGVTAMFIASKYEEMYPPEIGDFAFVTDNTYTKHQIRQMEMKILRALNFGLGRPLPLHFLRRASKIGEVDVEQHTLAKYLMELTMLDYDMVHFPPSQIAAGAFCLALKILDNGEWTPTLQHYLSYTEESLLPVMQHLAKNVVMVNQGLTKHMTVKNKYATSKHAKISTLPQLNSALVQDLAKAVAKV

Turning to `Fc1ccc2ncnc(NCCc3ccc(Cl)cc3)c2c1` [5at, N-[2-(4-Chlorophenyl)Ethyl]-6-Fluoro-4-Quinazolinamine], the remaining activity at 10 µM stood at 97% in assay [1] (setting [6]); 110% in assay [2] (setting [6]); 91% in assay [3] (setting [6]); 117% in assay [4] (setting [6]); 103% in assay [5] (setting [6]).
On to `COc1ccc2ncnc(Nc3cccc(F)c3)c2c1` [5ay, N-(3-Fluorophenyl)-6-Methoxy-4-Quinazolinamine], for which the remaining activity at 10 µM was 70% in assay [1] (setting [7]); 108% in assay [2] (setting [7]); 72% in assay [3] (setting [7]); 102% in assay [4] (setting [7]); 64% in assay [5] (setting [7]).
Turning to `Fc1ccc(CCNc2ncnc3ccc(F)cc23)cc1` [5as, 6-Fluoro-N-[2-(4-Fluorophenyl)Ethyl]-4-Quinazolinamine], the remaining activity at 10 µM in assay [1] (setting [8]) is 78%; in assay [2] (setting [8]), 112%; in assay [3] (setting [8]), 90%; in assay [4] (setting [8]) it was 114%; in assay [5] (setting [8]), 100%.
`Fc1ccc(CNc2ncnc3ccc(F)cc23)cc1` [5aa, 6-Fluoro-N-(4-fluorobenzyl)-4-Quinazolinamine]: the remaining activity at 10 µM amounted to 91% in assay [1] (setting [9]); 105% in assay [2] (setting [9]); 87% in assay [3] (setting [9]); 110% in assay [4] (setting [9]); 99% in assay [5] (setting [9]).

The record behind these values is article PMC7827406, “Structure–Activity Relationship (SAR) Study of Spautin-1 to Entail the Discovery of Novel NEK4 Inhibitors” (International Journal of Molecular Sciences, 2021).
